According to US5603949A, “Use of a tocopherol phosphate or one of its derivatives, for the preparation of cosmetic or pharmaceutical compositions and compositions so obtained” (LVMH Recherche, priority 1991, dated 1997):
Where a name gives a salt, the structure may show the parent alone.

Target: T1, phospholipase A2 (Rattus norvegicus, UniProt P14423)
T1 construct: The phospholipase A2 is isolated from the peritoneal cavity of a rat; from tissue; host or cells: peritoneal cavity of a rat
T1 sequence (P14423 22-146): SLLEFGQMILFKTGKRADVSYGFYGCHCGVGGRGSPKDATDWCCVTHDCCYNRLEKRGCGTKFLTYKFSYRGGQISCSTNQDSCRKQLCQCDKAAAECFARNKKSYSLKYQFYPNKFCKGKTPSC
Assay: inhibition of phospholipase A2 (PLA2): release of 14C-labeled fatty acid from phosphatidylethanolamine
Type: biochemical
Conditions: PLA2 isolated from peritoneal cavity of a rat; 0.1M Tris-HCl, pH=9, Ca++; 20 min preincubation, then 20 min with substrate, 37° C.; read-out: 50% inhibitory concentration (IC50) (converted)
Method: The inhibition of phospholipase A2, which is involved in the production of allergy and inflammation mediators, especially in the inflammatory reaction of skin allergies, is measured according to the protocol described by H. W. Chang, I. Kudo, M. Tomita and K. Inoue in J. Biochem. (Tokyo) 102(1): 147-154 (1987).
The phospholipase A2 is isolated from the peritoneal cavity of a rat. PLA2 hydrolyzes the ester linkage in the 2-position of the glycerol of a phosphatidylethanolamine, this position being occupied by a fatty acid residue labeled with carbon 14. The radioactive fatty acid released will be extracted and then quantitatively analyzed by liquid scintillation. In the presence of the PLA2 inhibitor, this hydrolysis will be reduced and less released fatty acid will therefore be determined.
In practice, the PLA2 and the test product are placed in a 0.1M Tris-HCl buffer, pH=9, containing 4 mmol of Ca^++ and the mixture is incubated for 20 min at 37° C., with agitation. After this contact time, the labeled phosphatidylethanolamine is added and incubation is continued for 20 min at 37° C., with agitation, to allow the hydrolysis of this substrate. n-Heptane is then used to extract the labeled fatty acid released during the hydrolysis, the latter then being quantitatively analyzed by liquid scintillation. […]

With `Cc1cc(OP(=O)(O)O)cc2c1OC(C)(CCCC(C)CCCC(C)CCCC(C)C)CC2` (stereo not shown) [disodium salt of delta-tocopherol phosphate] the IC50 was 20.7 µM.
